The source of these data is PMC5061434, “Bacterial Expression, Purification and In Vitro Phosphorylation of Full-Length Ribosomal S6 Kinase 2 (RSK2)” (PLoS ONE, 2016).

Experiment [1] deals with T1, Ribosomal S6 kinase 2 (RSK2) (Mus musculus, UniProt P18654).
T1 construct: gene Rps6ka3; full-length mouse RSK2 (amino acids 1–740), expressed in E. coli, phosphorylated in vitro by ERK2 and PDK1
Description: ADP-Glo kinase assay with S6 peptide at […] ATP; also thermal shift (SYPRO Orange, ~[…]°C). The class given is biochemical. (In general: ADP-Glo first removes unused ATP, then detects ADP through luciferase.)

In experiment [2] the target is full-length murine ribosomal S6 kinase 2 (RSK2) (mouse) (UniProt P18654). The experiment can be described thus: dynamic light scattering; RSK2 at ~0.7 mg/ml, 10°C, 50 mM Tris pH 8.0, 500 mM NaCl, 5 mM 2-mercaptoethanol; dimer of monomers.

T1 sequence (P18654 whole entry, the tested form may be a part): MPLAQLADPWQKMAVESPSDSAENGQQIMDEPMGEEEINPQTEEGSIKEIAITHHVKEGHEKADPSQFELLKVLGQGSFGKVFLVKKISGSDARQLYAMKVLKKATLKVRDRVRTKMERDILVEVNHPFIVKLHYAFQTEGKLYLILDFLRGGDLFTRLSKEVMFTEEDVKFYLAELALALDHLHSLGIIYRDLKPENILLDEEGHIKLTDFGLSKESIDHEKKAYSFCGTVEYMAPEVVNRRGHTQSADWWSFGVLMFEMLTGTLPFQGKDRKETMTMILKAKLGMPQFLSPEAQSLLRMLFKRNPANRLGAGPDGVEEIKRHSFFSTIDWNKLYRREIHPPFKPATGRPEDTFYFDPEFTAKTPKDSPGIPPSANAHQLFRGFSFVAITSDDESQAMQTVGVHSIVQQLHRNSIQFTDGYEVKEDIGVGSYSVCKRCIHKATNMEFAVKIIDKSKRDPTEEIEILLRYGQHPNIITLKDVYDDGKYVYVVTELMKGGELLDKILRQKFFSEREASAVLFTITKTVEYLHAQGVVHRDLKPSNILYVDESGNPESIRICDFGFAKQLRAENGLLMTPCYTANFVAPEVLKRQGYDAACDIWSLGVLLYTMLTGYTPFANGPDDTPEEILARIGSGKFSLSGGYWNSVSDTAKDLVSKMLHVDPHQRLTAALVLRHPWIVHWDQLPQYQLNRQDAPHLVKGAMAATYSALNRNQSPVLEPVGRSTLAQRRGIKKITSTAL

One may read the IC50 as the concentration that gives 50% inhibition. On to `CC(=O)O[C@@H]1[C@@H](OC(C)=O)[C@@H](O)[C@H](Oc2c(-c3ccc(O)cc3)oc3cc(O)cc(O)c3c2=O)O[C@H]1C` [SL0101], for which the concentration for half-maximal inhibition (IC50) in experiment [1] was about 8 µM.
A word on the stoichiometry N: it is a count of units in the complex or per binding partner. The compound “full-length murine ribosomal S6 kinase 2 (RSK2) (from UniProt P18654 1-740) (enzyme)” returned a stoichiometry N in experiment [2] of 2.
